Results: paper PMC5651819, “AtSPX1 affects the AtPHR1–DNA-binding equilibrium by binding monomeric AtPHR1 in solution” (Biochemical Journal, 2017)

Biological target: T1, GST–AtSPX1 (Arabidopsis thaliana, UniProt Q8LBH4)
T1 construct: gene SPX1; contains degradation products and free GST
T1 sequence (Q8LBH4 1-256): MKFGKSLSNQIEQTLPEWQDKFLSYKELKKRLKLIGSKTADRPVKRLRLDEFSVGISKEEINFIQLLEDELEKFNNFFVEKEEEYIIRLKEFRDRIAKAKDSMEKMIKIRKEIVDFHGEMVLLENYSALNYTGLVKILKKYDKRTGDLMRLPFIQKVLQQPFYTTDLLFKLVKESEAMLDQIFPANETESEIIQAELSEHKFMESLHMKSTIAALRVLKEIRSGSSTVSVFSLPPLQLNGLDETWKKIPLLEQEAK
Assay: microscale thermophoresis
Settings: unreliable; data not shown; some Pi binding to free GST, precise affinity could not be determined

- Kd: 5 to 10 mM
SMILES: O=P(O)(O)O [Pi]
